# Measurements from patent publication US11053204B2, “Pyrimidinyloxy benzene derivatives as herbicides” (FMC Corporation, priority 2015, dated 2021).
# Columns and labels:
# Assay type in all cases: in vivo
# [1] = test system: barnyardgrass (Echinochloa crus-galli); assay: Test A preemergence, visual injury rating; conditions: 0 to 100 scale (0 no effect, 100 complete control)
# How it was run: (§1)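 Visual 0–100 rating (100 = complete control) taken about 10 d post-treatment relative to untreated checks. Preemergence: directed soil spray on sown loam/sand pots. Postemergence: seedlings 2–10 cm, 1–2 leaf. Non-phytotoxic solvent formulation with surfactant.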
# kochia (Kochia scoparia) [2] = assay: Test A preemergence, visual injury rating; conditions: 0 to 100 scale (0 no effect, 100 complete control)
# How it was run: as §1
# [3] = test system: blackgrass (Alopecurus myosuroides); assay: Test C postemergence, plant response rating; conditions: for Plant response rating, Blackgrass: scale 0 to 100; for Blackgrass plant response rating: scale 0 to 100 (0 no effect, 100 complete control)
# From the text: (§2) Seeds of plant species selected from blackgrass (Alopecurus myosuroides), ryegrass, Italian (Italian ryegrass, Lolium multiflorum), wheat (winter wheat, Triticum aestivum), galium (catchweed bedstraw, Galium aparine), corn (Zea mays), crabgrass, large (large crabgrass, Digitaria sanguinalis), foxtail, giant (giant foxtail, Setaria faberii), johnsongrass (Sorghum halepense), lambsquarters (Chenopodium album), morningglory (Ipomoea coccinea), nutsedge, yellow (yellow nutsedge, Cyperus esculentus), pigweed (Amaranthus retroflexus), ragweed (common ragweed, Ambrosia elatior), soybean (Glycine max), barnyardgrass (Echinochloa crus-galli), oilseed rape (Brassica napus), pigweed, palmer (palmer pigweed, Amaranthus palmeri), waterhemp (common waterhemp, Amaranthus rudis), velvetleaf (Abutilon theophrasti), kochia (Kochia scoparia), surinam grass (Brachiaria decumbens), nightshade (eastern black nightshade, Solanum ptycanthum), wild poinsettia (Euphorbia heterophylla), windgrass (Apera spica-venti), and oat, wild (wild oat Avena fatua), were planted into a blend of loam soil and sand or a silt loam soil and treated preemergence with test chemicals formulated in a non-phytotoxic solvent mixture which included a surfactant.
# (§3) At the same time, plants selected from these crop and weed species and also chickweed (common chickweed, Stellaria media), buckwheat, wild (wild buckwheat, Polygonum convolvulus), wild mustard (Sinapis arvensis), field poppy (Papaver rhoeas), field violet (Viola arvensis), geranium, cutleaf (cutleaf geranium, Geranium dissectum), Canada thistle (Cirsium arvense), and speedwell (bird's-eye speedwell, Veronica persica), were planted in pots containing Sunshine Redi-Earth® planting medium comprising spaghnum peat moss, vermiculite, starter nutrients and dolomitic limestone and treated with postemergence applications of test chemicals formulated in the same manner. Plants ranged in height from 2 to 18 cm (1- to 4-leaf stage) for postemergence treatments. Treated plants and controls were maintained in a greenhouse for 13 to 15 d, after which time all species were compared to controls and visually evaluated. Plant response ratings, summarized in Table C, are based on a scale of 0 to 100 where 0 is no effect and 100 is complete control. A dash (-) response means no test result.
# corn (Zea mays) = assay: Test C postemergence, plant response rating; conditions: for Corn plant response rating: scale 0 to 100 (0 no effect, 100 complete control)
# From the text: as §2, §3
# [4] = test system: lambsquarters (Chenopodium album); assay: Test C postemergence, plant response rating; conditions: for Lambsquarters plant response rating: scale 0 to 100 (0 no effect, 100 complete control)
# From the text: as §2, §3
# [5] = test system: foxtail, giant (giant foxtail, Setaria faberii); assay: Test C postemergence, plant response rating; conditions: for Foxtail, Giant plant response rating: scale 0 to 100 (0 no effect, 100 complete control)
# From the text: as §2, §3
# [6] = test system: oilseed rape (Brassica napus); assay: Test C postemergence, plant response rating; conditions: for Oilseed Rape plant response rating: scale 0 to 100 (0 no effect, 100 complete control)
# From the text: as §2, §3
# [7] = test system: nutsedge, yellow (yellow nutsedge, Cyperus esculentus); assay: Test C postemergence, plant response rating; conditions: for Nutsedge, Yellow plant response rating: scale 0 to 100 (0 no effect, 100 complete control)
# From the text: as §2, §3
# [8] = test system: chickweed (common chickweed, Stellaria media); assay: Test C postemergence, plant response rating; conditions: for Chickweed plant response rating: scale 0 to 100 (0 no effect, 100 complete control)
# From the text: as §2, §3
# [9] = test system: morningglory (Ipomoea coccinea); assay: Test C postemergence, plant response rating; conditions: for Morningglory plant response rating: scale 0 to 100 (0 no effect, 100 complete control)
# From the text: as §2, §3
# [10] = test system: wheat (winter wheat, Triticum aestivum); assay: Test C postemergence, plant response rating
# From the text: as §2, §3
# [11] = test system: crabgrass, large (large crabgrass, Digitaria sanguinalis); assay: Test C postemergence, plant response rating; conditions: for Crabgrass, Large plant response rating: scale 0 to 100 (0 no effect, 100 complete control)
# From the text: as §2, §3
# [12] = test system: ryegrass, Italian (Italian ryegrass, Lolium multiflorum); assay: Test C postemergence, plant response rating; conditions: for Ryegrass, Italian plant response rating: scale 0 to 100 (0 no effect, 100 complete control)
# From the text: as §2, §3
# soybean (Glycine max) = assay: Test C postemergence, plant response rating; conditions: for Soybean plant response rating: scale 0 to 100 (0 no effect, 100 complete control)
# From the text: as §2, §3
# kochia (Kochia scoparia) [13] = assay: Test C postemergence, plant response rating; conditions: for Kochia plant response rating: scale 0 to 100 (0 no effect, 100 complete control)
# From the text: as §2, §3
# [14] = test system: oat, wild (wild oat Avena fatua); assay: Test C postemergence, plant response rating; conditions: for Oat, Wild plant response rating: scale 0 to 100 (0 no effect, 100 complete control)
# From the text: as §2, §3
smiles,measurement,setting,value
CCCCC(=O)c1c(Br)cccc1Oc1ncc(Cl)cn1 [Compound 79],Barnyardgrass plant response rating,[1]; 125 g ai/ha,100
same,Barnyardgrass plant response rating,[1]; 500 g ai/ha,100
same,Kochia plant response rating,kochia (Kochia scoparia) [2]; 125 g ai/ha,80
same,Kochia plant response rating,kochia (Kochia scoparia) [2]; 500 g ai/ha,100
same,"Plant response rating, Blackgrass",[3]; 16 g ai/ha,20
same,"Plant response rating, Blackgrass",[3]; 31 g ai/ha,10
same,Blackgrass plant response rating,[3]; 62 g ai/ha,20
same,Blackgrass plant response rating,[3]; 125 g ai/ha,30
same,"Plant response rating, Corn","corn (Zea mays); 16 g ai/ha, scale of 0 to 100",15
same,"Plant response rating, Corn","corn (Zea mays); 31 g ai/ha, scale 0 to 100",25
same,Corn plant response rating,corn (Zea mays); 62 g ai/ha,20
same,Corn plant response rating,corn (Zea mays); 125 g ai/ha,20
same,"Plant response rating, Lambsquarters","[4]; 16 g ai/ha, scale of 0 to 100",75
same,"Plant response rating, Lambsquarters","[4]; 31 g ai/ha, scale 0 to 100",85
same,Lambsquarters plant response rating,[4]; 62 g ai/ha,90
same,Lambsquarters plant response rating,[4]; 125 g ai/ha,100
same,"Plant response rating, Foxtail, Giant","[5]; 16 g ai/ha, scale of 0 to 100",10
same,"Plant response rating, Foxtail, Giant","[5]; 31 g ai/ha, scale 0 to 100",20
same,"Foxtail, Giant plant response rating",[5]; 62 g ai/ha,25
same,"Foxtail, Giant plant response rating",[5]; 125 g ai/ha,40
same,"Plant response rating, Oilseed Rape","[6]; 16 g ai/ha, scale of 0 to 100",80
same,"Plant response rating, Oilseed Rape","[6]; 31 g ai/ha, scale 0 to 100",98
same,Oilseed Rape plant response rating,[6]; 62 g ai/ha,98
same,Oilseed Rape plant response rating,[6]; 125 g ai/ha,100
same,"Plant response rating, Nutsedge, Yellow","[7]; 16 g ai/ha, scale of 0 to 100",0
same,"Plant response rating, Nutsedge, Yellow","[7]; 31 g ai/ha, scale 0 to 100",5
same,"Nutsedge, Yellow plant response rating",[7]; 62 g ai/ha,5
same,"Nutsedge, Yellow plant response rating",[7]; 125 g ai/ha,5
same,"Plant response rating, Chickweed","[8]; 16 g ai/ha, scale of 0 to 100",95
same,"Plant response rating, Chickweed","[8]; 31 g ai/ha, scale 0 to 100",90
same,Chickweed plant response rating,[8]; 62 g ai/ha,95
same,Chickweed plant response rating,[8]; 125 g ai/ha,98
same,"Plant response rating, Morningglory","[9]; 16 g ai/ha, scale of 0 to 100",10
same,"Plant response rating, Morningglory","[9]; 31 g ai/ha, scale 0 to 100",20
same,Morningglory plant response rating,[9]; 62 g ai/ha,30
same,Morningglory plant response rating,[9]; 125 g ai/ha,30
same,"Plant response rating, Wheat","[10]; 16 g ai/ha, scale of 0 to 100",5
same,"Plant response rating, Wheat","[10]; 31 g ai/ha, scale 0 to 100",5
same,Wheat plant response rating,"[10]; 125 g ai/ha, scale 0 to 100 (0 no effect, 100 complete control)",15
same,"Plant response rating, Crabgrass, Large","[11]; 16 g ai/ha, scale of 0 to 100",10
same,"Plant response rating, Crabgrass, Large","[11]; 31 g ai/ha, scale 0 to 100",25
same,"Crabgrass, Large plant response rating",[11]; 62 g ai/ha,70
same,"Crabgrass, Large plant response rating",[11]; 125 g ai/ha,65
same,"Plant response rating, Ryegrass, Italian","[12]; 16 g ai/ha, scale of 0 to 100",5
same,"Plant response rating, Ryegrass, Italian","[12]; 31 g ai/ha, scale 0 to 100",30
same,"Ryegrass, Italian plant response rating",[12]; 62 g ai/ha,25
same,"Ryegrass, Italian plant response rating",[12]; 125 g ai/ha,30
same,"Plant response rating, Soybean","soybean (Glycine max); 16 g ai/ha, scale of 0 to 100",60
same,"Plant response rating, Soybean","soybean (Glycine max); 31 g ai/ha, scale 0 to 100",70
same,Soybean plant response rating,soybean (Glycine max); 62 g ai/ha,65
same,Soybean plant response rating,soybean (Glycine max); 125 g ai/ha,65
same,"Plant response rating, Kochia","kochia (Kochia scoparia) [13]; 16 g ai/ha, scale of 0 to 100",75
same,"Plant response rating, Kochia","kochia (Kochia scoparia) [13]; 31 g ai/ha, scale 0 to 100",80
same,Kochia plant response rating,kochia (Kochia scoparia) [13]; 62 g ai/ha,90
same,Kochia plant response rating,kochia (Kochia scoparia) [13]; 125 g ai/ha,98
same,"Plant response rating, Oat, Wild","[14]; 16 g ai/ha, scale of 0 to 100",15
same,"Plant response rating, Oat, Wild","[14]; 31 g ai/ha, scale 0 to 100",60
same,"Oat, Wild plant response rating",[14]; 62 g ai/ha,45
same,"Oat, Wild plant response rating",[14]; 125 g ai/ha,35
